Data: the CATMoS acute toxicity set (Mansouri et al. 2021)

Assay: rat acute oral toxicity
Conditions: in vivo

Compound	LD50
CN1CCC[C@H]1c1cccnc1	51.2 mg/kg
C1CC2OC2CC1C1CO1 (centres undefined)	2130 mg/kg
CCCCCCCCCCCCN(C)C	740 mg/kg
BrC(Br)Br	933 mg/kg
CCCNCCC	300 mg/kg
CCNc1nc(Cl)nc(NC(C)(C)C)n1	1500 mg/kg
CCOP(=S)(OCC)Oc1ccc(Cl)cc1Cl	172 mg/kg
CCCCOC(=O)CO	4240 mg/kg
O=C(O)c1ccccc1-c1c2cc(I)c(=O)c(I)c-2oc2c(I)c(O)c(I)cc12	1840 mg/kg
CC(C)O	4710 mg/kg
COc1nn(CSP(=S)(OC)OC)c(=O)s1	20 mg/kg
CC1(C)C(C=C(Br)Br)C1C(=O)OC(C#N)c1cccc(Oc2ccccc2)c1 (centres undefined)	40.5 mg/kg
OCC#CCO	104 mg/kg
COP(=S)(OC)SCC(=O)N(C)C=O	218 mg/kg
COP(=S)(OC)Oc1ccc(Sc2ccc(OP(=S)(OC)OC)cc2)cc1	444 mg/kg
CC(C)(c1ccc(O)cc1)c1cccc(C(C)(C)c2ccc(O)cc2)c1	5460 mg/kg
O=C(O)c1cccc(C(=O)O)c1	10400 mg/kg
CC=C1CC2CC1C1C3C=CC(C3)C21 (centres undefined)	666 mg/kg
S=C=S	1200 mg/kg
Cc1ccc(N)cc1Cl	302 mg/kg
CC1(C)CC(O)CC(C)(C)N1[O]	953 mg/kg

Compound	LD50
ClC1(Cl)C2(Cl)C3(Cl)C4(Cl)C(Cl)(Cl)C5(Cl)C3(Cl)C1(Cl)C5(Cl)C24Cl (centres undefined)	235 mg/kg
C=CC(=O)OCCOC	404 mg/kg
COCCCNc1nc(NCCCOC)nc(SC)n1	1400 mg/kg
ClCCl	1500 mg/kg
CN=C(O)Oc1cccc(C)c1	268 mg/kg
CCSC(=O)N(CC(C)C)CC(C)C	4000 mg/kg
Oc1ccccc1-c1ccccc1	718 mg/kg
CCCCOCN(C(=O)CCl)c1c(CC)cccc1CC	1740 mg/kg
C1CO1	72 mg/kg
O=C1NS(=O)(=O)c2ccccc21	8820 mg/kg
Cn1cnc([N+](=O)[O-])c1Sc1ncnc2nc[nH]c12	400 mg/kg
O=C1OC(=O)C2C1C1(Cl)C(Cl)=C(Cl)C2(Cl)C1(Cl)Cl (centres undefined)	2130 mg/kg
C=CC(=O)OCC(O)COCCCCOCC(O)COC(=O)C=C (centres undefined)	200 mg/kg
Cc1cccc(Nc2cc(Cl)nc(SCC(=O)O)n2)c1C	1050 mg/kg
Cc1ccccc1C	3520 mg/kg
CCCOCC(C)O (centres undefined)	2490 mg/kg
CCCCCCCCCC[N+](C)(C)CCCCCCCCCC	84 mg/kg
O=C1C[C@@H]2OCC=C3CN4CC[C@]56c7ccccc7N1[C@H]5[C@H]2[C@H]3C[C@H]46	3.58 mg/kg
CN(C)C(=O)Nc1ccccc1	6400 mg/kg
O=C=Nc1cccc(C(F)(F)F)c1	975 mg/kg
Oc1ccccc1O	260 mg/kg

Compound	LD50
O=[N+]([O-])c1ccc(Oc2ccc(Cl)cc2Cl)cc1	2410 mg/kg
CC(=O)CC(C)C	2080 mg/kg
O=c1n(CC2CO2)c(=O)n(CC2CO2)c(=O)n1CC1CO1 (centres undefined)	222 mg/kg
COC(=O)c1ccccc1	1180 mg/kg
O=C=NC1CCCCC1	335 mg/kg
O=C(O)CF	0.1 mg/kg
CCCSC(=O)N(CCC)CCC	1200 mg/kg
COP(=S)(Oc1cc(Cl)c(Br)cc1Cl)c1ccccc1 (centres undefined)	19 mg/kg
COP(=S)(OC)SCN1C(=O)c2ccccc2C1=O	26 mg/kg
CCCCSP(SCCCC)SCCCC	910 mg/kg
O=C1NC(=O)C(c2ccccc2)(c2ccccc2)N1	250 mg/kg
CN(C)C(C)(C)CO	1660 mg/kg
CC1(C)[C@H](C(=O)O[C@H](C#N)c2cccc(Oc3ccccc3)c2)[C@@H]1C(Br)C(Br)(Br)Br (some centres undefined)	99 mg/kg
Oc1c(Br)cc(Br)cc1Br	1490 mg/kg
Nc1ccc(Nc2ccccc2)cc1	464 mg/kg
CC(=O)C1C(=O)C=C(C)OC1=O (centres undefined)	500 mg/kg
O=C(Nc1ccc(Cl)c(Cl)c1)C1CC1	215 mg/kg
O=CC=Cc1ccccc1	2200 mg/kg
CCOP(c1ccccc1)c1ccccc1	316 mg/kg
CCCCC(CC)COP(Oc1ccccc1)Oc1ccccc1 (centres undefined)	3840 mg/kg
O=C1OC(=O)c2ccccc21	1530 mg/kg

Compound	LD50
COCCOCCOCCOCCOC	3850 mg/kg
CC(C)N(C(=O)CCl)c1ccccc1	710 mg/kg
O=C(O)c1cccnc1	4500 mg/kg
CCCCCCCCC=CCCCCCCCCOCCO	2700 mg/kg
CCCCC(CC)CO (centres undefined)	2050 mg/kg
CSc1ccc(C(=O)C(C)(C)N2CCOCC2)cc1	1460 mg/kg
C=CCCCC=CCOC	4900 mg/kg
CCOC(=O)C(O)(c1ccc(Cl)cc1)c1ccc(Cl)cc1	700 mg/kg
NS(=O)(=O)Cc1noc2ccccc12	1990 mg/kg
CCN(CC)C(=S)S	1500 mg/kg
COC(=O)CC(=O)CC(=O)OC	4480 mg/kg
Cc1ccc(Nc2ccc(Nc3ccc(C)cc3)c3c2C(=O)c2ccccc2C3=O)cc1	3000 mg/kg
COP(=S)(OC)SCc1nc(N)nc(N)n1	890 mg/kg
O=C=Nc1ccccc1	800 mg/kg
O=C(CC(C(=O)OC1CCCCC1)S(=O)(=O)O)OC1CCCCC1 (centres undefined)	2830 mg/kg
CCCCCCCCCCCCCCCCCCN(C)C	2120 mg/kg
CCOP(=S)(OCC)Oc1cc(Cl)c(SC)cc1Cl	9.1 mg/kg
C=C(Cl)Cl	80 mg/kg
CCOP(=O)(O)C(N)=O	2080 mg/kg
CC(Oc1cc(Cl)c(Cl)cc1Cl)C(=O)O (centres undefined)	650 mg/kg
CC(=O)OC(C)C	3000 mg/kg
